These compounds were tested on HMOX1 mRNA expression (assay: Oxidative stress gene expression (mRNA) protocol: heme oxygenase mRNA induction in NHLF cells (Quantigene Plex 2.0, Luminex)). Conditions: 2.5 μM compound, 6 h, normalized to GAPDH, above DMSO treated cells.
Assay type: cell-based, human
Protocol: Oxidative Stress Gene Expression (mRNA) Protocol
Cell Culture. Normal Human Fibroblast (NHLF), were obtained from Lonza. Cultures of cells were maintained in Fibroblast Growth Medium (FGM-2) medium supplemented with 2% fetal bovine serum (FBS), Fibroblast Growth Factor (hFGF-B) 0.5 ml, Insulin 0.5 ml, gentamicin/amphotericin-B 0.5 mL at 37° C. in a humidified atmosphere of 5% CO2. Primary isolates of cell are cultured in T-225 flasks (Corning) as per instructions from the vendor. Cells are grown to 80% confluence before harvesting. Cells are harvested by first washing with 5 mL of Hepes buffered saline solution (Lonza). The buffered salt solution is aspirated and then 5 mL of a solution of Trypsin-EDTA is added to detach the cells from the culture flask. To this mixture 5 mL of Trypsin neutralization solution (Lonza) is added Trypsin. The mixture is centrifuged at 500×g for 10 minutes at 4° C. The cell pellet is resuspended to a final concentration of one million cells per milliliter in fetal bovine serum containing 6% DMSO. The cells are then dispensed into cyrovials and frozen in liquid nitrogen for storage.
Heme oxygenase mRNA expression. Secondary growth of NHLF cells are used for all assays. Cell are thawed and then placed into culture in T225 flasks. The cells are grown to 80% confluency and harvested by washing once with HEPES buffered saline solution and then trypsinized. Equal numbers (7×10^3 cells per well) of NHLF cells were plated in 96 well tissue culture plates (Corning). Cells were incubated overnight in FGM-2 medium prior to exposure to compound. Cells were treated with either DMSO or a compound of the Examples above for 6 h. Preparation of cell lysates was carried out according to instructions using the Quantigene Reagent system 2.0 protocol (Panomics). Heme oxygenase mRNA induction was detected from cell lysate using the Quantigene Plex 2.0 Assay Kit (Panomics) on the Luminex platform (BIO-RAD). Expression of GAPDH mRNA was used as the internal control for the Quantigen Plex 2.0 Assay. The data in Table 1 represents the fold change of heme oxygenase mRNA expression, normalized to control values, above DMSO treated cells.

| Structure (SMILES) | Fold Change of HMOX1 mRNA expression (at 2.5 μM) |
| --- | --- |
| CC1OCCC1S(=O)(=O)c1c(-c2ccc(C(F)(F)F)cc2)cnc2ccccc12 (centres unmarked) [Example 27, 3-(4-trifluoromethyl-phenyl)-4-(2-methyl-tetrahydro-furan-3-sulfonyl)-quinoline] | 27.5 (at 2.5 μM) fold |

Same assay, conditions: 3 μM compound, 6 h, normalized to GAPDH, above DMSO treated cells

| Structure (SMILES) | Fold Change of HMOX1 mRNA expression (at 3 μM) |
| --- | --- |
| CCOC(=O)c1cnc2c(OC)cccc2c1S(=O)(=O)C1CCCCC1 [Example 3, 4-Cyclohexanesulfonyl-8-methoxy-quinoline-3-carboxylic acid ethyl ester] | 6.7 (at 3 μM) fold |
| COc1cccc2c(S(=O)(=O)C3CCOC3C)c(C(=O)OC3CCCCC3)cnc12 (centres unmarked) [Example 8, 8-Methoxy-4-(2-methyl-tetrahydro-furan-3-sulfonyl)-quinoline-3-carboxylic acid cyclohexyl ester] | 4.5 (at 3 μM) fold |
| COc1cccc2c(S(=O)(=O)C3CCOC3C)c(C(=O)OCC3CCCCC3)cnc12 (centres unmarked) [Example 9, 8-Methoxy-4-(2-methyl-tetrahydro-furan-3-sulfonyl)-quinoline-3-carboxylic acid cyclohexylmethyl ester] | 2 (at 3 μM) fold |
| COc1cccc2c(S(=O)(=O)C3CCOC3C)c(C(=O)OCC3CCCO3)cnc12 (centres unmarked) [Example 11, 8-Methoxy-4-(2-methyl-tetrahydro-furan-3-sulfonyl)-quinoline-3-carboxylic acid tetrahydro-furan-2-ylmethyl ester] | 2.7 (at 3 μM) fold |
| CCCS(=O)(=O)c1cnc2ccc(OC)cc2c1NC1CCCC1 [Example 29, cyclopentyl-[6-methoxy-3-(propane-1-sulfonyl)-quinolin-4-yl]amine] | 4.0 (at 3 μM) fold |
| CCCS(=O)(=O)c1cnc2ccc(OC)cc2c1NC1CCCCC1 [Example 30, cyclohexyl-[6-methoxy-3-(propane-1-sulfonyl)-quinolin-4-yl]-amine] | 4.0 (at 3 μM) fold |
| CCCS(=O)(=O)c1cnc2c(OC(F)(F)F)cccc2c1NC1CCCC1 [Example 31, cyclopentyl-[3-(propane-1-sulfonyl)-8-trifluoromethoxy-quinolin-4-yl]-amine] | 4.0 (at 3 μM) fold |

Same assay, conditions: 10 μM compound, 6 h, normalized to GAPDH, above DMSO treated cells

| Structure (SMILES) | Fold Change of HMOX1 mRNA expression (at 10 μM) |
| --- | --- |
| CCOC(=O)c1cnc2c(OC)cccc2c1S(=O)(=O)Cc1ccoc1 [Example 5, 4-(Furan-3-ylmethanesulfonyl)-8-methoxy-quinoline-3-carboxylic acid ethyl ester] | 2.0 (at 10 μM) fold |
| CCCC(=O)c1cnc2c(OC)cccc2c1S(=O)(=O)C1CCOC1C (centres unmarked) [Example 7, 1-[8-methoxy-4-(2-methyl-tetrahydro-furan-3-sulfonyl)-quinolin-3-yl]-butan-1-one] | 2.8 (at 10 μM) fold |
| COCCCOC(=O)c1cnccc1S(=O)(=O)C1CCOC1C (centres unmarked) [Example 21, 4-(2-Methyl-tetrahydro-furan-3-sulfonyl)-nicotinic acid 3-methoxy-propyl ester] | 6.0 (at 10 μM) fold |
| COCCCOC(=O)c1c[n+]([O-])ccc1S(=O)(=O)C1CCOC1C (centres unmarked) [Example 22, 4-(2-Methyl-tetrahydro-furan-3-sulfonyl)-1-oxy-nicotinic acid 3-methoxy-propyl ester] | 5.6 (at 10 μM) fold |

Same assay, conditions: Homo sapiens, 3.75 μM compound, 6 h, normalized to GAPDH, above DMSO treated cells, read-out: Fold Change of HMOX1 mRNA expression at 3.75 μM

| Structure (SMILES) | fold induction at 3.75 µM |
| --- | --- |
| CCOC(=O)c1cnc2c(OC)cccc2c1S(C)(=O)=O [Example 1, 4-methanesulfonyl-8-methoxy-quinoline-3-carboxylic acid ethyl ester] | 3.4 |
| CCOC(=O)c1cnc2c(OC)cccc2c1S(=O)(=O)C1CCOC1C (centres unmarked) [Example 2, 8-Methoxy-4-(2-methyl-tetrahydro-furan-3-sulfonyl)-quinoline-3-carboxylic acid ethyl ester] | 48.6 |
| CCOC(=O)c1cnc2c(OC)cccc2c1S(=O)(=O)c1ccoc1C [Example 4, 8-Methoxy-4-(2-methyl-furan-3-sulfonyl)-quinoline-3-carboxylic acid ethyl ester] | 5.8 |
| CCOC(=O)c1cnc2ccccc2c1S(=O)(=O)C1CCOC1C (centres unmarked) [Example 6, 4-(2-Methyl-tetrahydro-furan-3-sulfonyl)-quinoline-3-carboxylic acid ethyl ester] | 64.7 |
| COCCCOC(=O)c1cnc2c(OC)cccc2c1S(=O)(=O)C1CCOC1C (centres unmarked) [Example 10, 8-Methoxy-4-(2-methyl-tetrahydro-furan-3-sulfonyl)-quinoline-3-carboxylic acid 3-methoxy-propyl ester] | 28.5 |
| COCCCOC(=O)c1cnc2c(OC)cccc2c1S(=O)(=O)c1ccoc1C [Example 12, 8-Methoxy-4-(2-methyl-furan-3-sulfonyl)-quinoline-3-carboxylic acid 3-methoxy-propyl ester] | 15.3 |
| COCCCOC(=O)c1cnc2c(OC)cccc2c1S(=O)(=O)Cc1ccoc1 [Example 13, 4-(Furan-3-ylmethanesulfonyl)-8-methoxy-quinoline-3-carboxylic acid 3-methoxy-propyl ester] | 17.2 |
| COCCCOC(=O)c1cnc2ccccc2c1S(=O)(=O)C1CCOC1C (centres unmarked) [Example 14, 4-(2-Methyl-tetrahydro-furan-3-sulfonyl)-quinoline-3-carboxylic acid 3-methoxy-propyl ester] | 52.4 |
| COc1cccc2c(S(=O)(=O)c3ccoc3C)c(C(=O)OCC3CCCO3)cnc12 (centres unmarked) [Example 15, 8-Methoxy-4-(2-methyl-furan-3-sulfonyl)-quinoline-3-carboxylic acid tetrahydro-furan-2-ylmethyl ester] | 4.4 |
| COc1cccc2c(S(=O)(=O)Cc3ccoc3)c(C(=O)OCC3CCCO3)cnc12 (centres unmarked) [Example 16, 4-(Furan-3-ylmethanesulfonyl)-8-methoxy-quinoline-3-carboxylic acid tetrahydro-furan-2-ylmethyl ester] | 2.3 |
| CC1OCCC1S(=O)(=O)c1c(C(=O)OCC2CCCO2)cnc2ccccc12 (centres unmarked) [Example 17, 4-(2-Methyl-tetrahydro-furan-3-sulfonyl)-quinoline-3-carboxylic acid tetrahydro-furan-2-ylmethyl ester] | 7.8 |
| CCCCCOC(=O)c1cnc2c(OC)cccc2c1S(=O)(=O)c1ccoc1C [Example 18, 8-Methoxy-4-(2-methyl-furan-3-sulfonyl)-quinoline-3-carboxylic acid pentyl ester] | 10.2 |
| COc1cccc2c(S(=O)(=O)c3ccoc3C)c(C(=O)OCC3CCCC3)cnc12 [Example 19, 8-Methoxy-4-(2-methyl-furan-3-sulfonyl)-quinoline-3-carboxylic acid cyclopentylmethyl ester] | 12.6 |
| CC1OCCC1Sc1cnc2ccccc2c1S(=O)(=O)C1CCOC1C (centres unmarked) [Example 20, 4-(2-methyl-tetrahydro-furan-3-sulfonyl)-3-(2-methyl-tetrahydro-furan-3-ylsulfanyl)-quinoline] | 25.9 |
| CCCS(=O)(=O)c1ccncc1C(=O)OCCCOC [Example 23, 4-(Propane-1-sulfonyl)-nicotinic acid 3-methoxy-propyl ester] | 4.2 |
| COCCCOC(=O)c1cnccc1S(=O)(=O)CC1CCCCC1 [Example 24, 4-Cyclohexylmethanesulfonyl-nicotinic acid 3-methoxy-propyl ester] | 5.3 |
| COCC#Cc1cnc2ccccc2c1S(=O)(=O)C1CCOC1C (centres unmarked) [Example 25, 3-(3-methoxy-prop-1-ynyl)-4-(2-methyl-tetrahydro-furan-3-sulfonyl)-quinoline] | 13 |
| CCOC(=O)/C=C/c1cnc2ccccc2c1S(=O)(=O)C1CCOC1C (centres unmarked) [Example 26, (E)-3-[4-(2-methyl-tetrahydro-furan-3-sulfonyl)-quinolin-3-yl]acrylic acid ethyl ester] | 13.2 |
| COc1ccc(-c2cnc3ccccc3c2S(=O)(=O)C2CCOC2C)cc1 (centres unmarked) [Example 28, 3-(4-methoxy-phenyl)-4-(2-methyl-tetrahydro-furan-3-sulfonyl)-quinoline] | 12.7 |
| CCCS(=O)(=O)c1cnc2c(OC(F)(F)F)cccc2c1NC1CCCCC1 [Example 32, cyclohexyl-[3-(propane-1-sulfonyl)-8-trifluoromethoxy-quinolin-4-yl]-amine] | 9.8 |

Source: US20120071505A1, “SUBSTITUTED PYRIDINE DERIVATIVES, PHARMACEUTICAL COMPOSITIONS, AND METHODS OF USE TO TREAT OXIDATIVE STRESS” (HIGH POINT PHARMACEUTICALS, LLC, priority 2009, published 2012)
